The values below come from patent US12459930B2, “Compounds for the inhibition of unregulated cell growth” (GODAVARI BIOREFINERIES LIMITED, priority 2018, dated 2025).

Counter-ions that a name gives are not always drawn. Like-named read-outs stand apart in the source and are kept apart here.

Assay [1] deals with DU145 prostate cancer cell line. Kind of assay: In vitro antiproliferative assay (MTT assay), DU145. It counts as cell-based. The conditions noted are these: 48 hrs drug incubation, read-out: IC50 in micromolar, DU145 (MTT assay). Here is the method: (§1) MTT assay is a simple and sensitive assay where, metabolic reducing activity of the cells is measured. The increase of this activity in time is taken as a parameter of cell growth. If treatment with a drug impairs this increase, the action is a consequence of growth inhibition, cell killing or both. […] All cell lines were cultured in a 37° C. incubator with a 5% CO2 environment. Compounds were dissolved in DMSO with a concentration of 0.1M (stock solution). Cells were seeded into 96-well plates at suitable plating efficiency.
(§2) Following plating efficiencies were standardized for MTT assay:
(§3) In the MTT procedure, the cells were plated in 96 well plates as per predetermined plating efficiency (Table1). The plates were then incubated for 24 hrs in 5% CO2 atmosphere at 37° C. Appropriate concentrations of the drugs were then added to the plate and further incubation was carried out for 48 hrs (in 5% CO2 atmosphere at 37° C.). The assay plate was then centrifuged twice at 3000 rpm for 3 mins and supernatant was then discarded. 100 ul of MTT solution (0.5 mg/ml) was then added to each well of the plate and it was further incubated for 4 hrs (in 5% CO2 atmosphere at 37° C.) Following 4 hr incubation, the plate was then centrifuged twice, and supernatant was aspirated off very carefully. 200 ul of DMSO was then added to each well to solubilize. MTT crystals and mixed well by shaking the plate. XY graph of log percent viability was then plotted against log drug concentration.
A general note: Tetrazolium assays rely on reduction of a dye to a coloured formazan, in cell work by metabolically active cells.

The subject of assay [2] is PC3 prostate cancer cell line. As to the kind of experiment: Soft agar colony-formation assay, PC3. It counts as cell-based. The note with it: 1 week, Alamar Blue, read-out: IC50 in micromolar, PC3 (Soft Agar Assay). The method, then:
(§4) The Soft Agar Colony-formation Assay is an anchorage-independent growth assay in soft agar, which is one of the most stringent assays for detecting malignant transformation of cells. For this assay, malignant cells are cultured with appropriate controls in soft agar medium for 1-2 weeks. Following this incubation period, formed colonies can either be analyzed morphologically using cell stain and quantifying the number of colonies formed.
(§5) Briefly, for Soft Agar Assay a mixture of 50 ul of 2× medium (taken appropriately as per cell line) and 50 ul of 1.2% Bacto Agar were plated on to each well of 96 well micro titer assay plate. 10 ul of cells (of specific plating efficiency pre standardized for respective cell line) were mixed with 20 ul of 2× medium and 30 ul of 0.8% of Bacto Agar and 1.6 ul of drug (of appropriate concentration) in a vial and transferred to the solidified pre layers of the assay plates. The cells were then allowed to grow and form colonies at 37° C. and 5% C02 for 1 week. An intermittent feeding with 50 ul of appropriate 2× medium was performed after 3 days of experimental set up. 16 ul of Alamar Blue (1.5 mg/ml) was then added to all the wells to quantify the developed colonies. The plates were incubated for 24 hrs at 37° C. Absorbance was then measured at 630 nm. XY graph of log Percent viability was then plotted against log drug concentration.
(§6) Following plating efficiencies were standardized for Soft Agar Assay: […]
For orientation: The colour change of resazurin is a common sign of viable cells or microbes.

The test system of assay [3] is MDAMB231 breast cancer cell line. Kind of assay: Soft agar colony-formation assay, MDAMB231. It counts as cell-based. The conditions noted are these: 1 week, Alamar Blue, read-out: IC50 in micromolar, MDAMB231 (Soft Agar Assay). The method, then: as §4, §5, §6
Assay [4] has the same test system. Kind of assay: In vitro antiproliferative assay (MTT assay), MDAMB231. The note with it: 48 hrs drug incubation, read-out: IC50 in micromolar, MDAMB231 (MTT assay). It counts as cell-based. Here is the method: as §1, §2, §3
Assay [5] has as its system PC3 spheres (cancer stem cells). Kind of assay: In vitro sphere-forming assay (cancer stem cells), PC3 in Prostosphere media. The conditions noted are these: for 3D sphere count of PC3 in Prostosphere media: 2000 cells/well, n = 6 ± S.D; for viability at 0.025 µM: read-out: % Viability of spheres (PC3), 0.025 uM; for viability at 0.25 µM: read-out: % Viability of spheres (PC3), 0.25 uM; for viability at 2.5 µM: read-out: % Viability of spheres (PC3), 2.5 uM; for viability at 25 µM: read-out: % Viability of spheres (PC3), 25 uM; for viability at 0.0025 µM: read-out: % Viability of spheres (PC3), 0.0025 uM.
Source text: In Vitro Sphere-forming Assay: Sphere assay measures the ability of cancer stem cells (CSCs) to form spheres in specially designed serum-free medium.
Materials and Reagents:50×B27 Supplement (Life Technologies, Invitrogen, Catlog No.: 17502-044), Fibroblast Growth Factor (FGF) (Sigma-Aldrich, Catlog No.: F029125), Epidermal Growth Factor (EGF) (Sigma-Aldrich, Catlog No.: E9644), Insulin (Sigma, Catlog No.: 19278), Dulbecco's Modified Eagle Medium/F12 (HiMedia Catlog No.: AL139-6), Dulbecco's Phosphate Buffered Saline (HiMedia Catlog No.: TL1006), Trypan Blue (TC193), Prostate Epithelial Media (LONZA, Catlog No.: CC-3166) MEGM (LONZA, Catlog No.: CC-3051), Heparin (Sigma, Catlog No.: H3393), Penstrep (HiMedia, Catlog No.: A002)
Prostosphere Media Preparation (For 100 mL): 1 g methyl cellulose autoclaved with magnetic stirrer, 100 mL plain media (Prostate Epithelial Basal Medium) was added and dissolved, under magnetic stirring. After complete dissolution, Insulin—40 μL, B27—2 mL, EGF—80 μL, Penstrep—1 ml was added.
Procedure—The cells were trypsinised and made into single-cell suspension by passing through cell strainers (100 μl and 40 μl, respectively), The cells were diluted at a concentration of 2000 cells/100 μL and suspended in either Mammosphere (for breast cell lines) or Prostosphere (for prostate cell lines). 100 μL of this suspension was added into each well of 96-well suspension plates and incubated at 37 C, 50 CO2 for 24 hrs. Appropriate concentrations of the drugs (2 L) were added into respective wells with 100 μL of stem cell culture medium. Plates were incubated at 37° C., 50% CO2 for 72 hrs. After incubation, 2.5 μL of the respective drug concentration and 50 μL of stem cell culture medium were added into each well and the plates were further incubated at 37° C., 500 CO2 for 72 hrs. 3 μL of the respective drug concentration was added with 50 μL of stem cell culture medium again after incubation and plates were reincubated for 72 hrs at 37° C., 500 CO2. Number of primary spheres formed for each concentration were counted. The spheres were converted to 0 viability of spheres compared to untreated (Growth Control with DMSO, GCD).

In assay [6] the test system is PC3 prostate cancer cell line. As to the kind of experiment: In vitro antiproliferative assay (MTT assay), PC3. It counts as cell-based. The conditions noted are these: 48 h, 48 hrs drug incubation, read-out: IC50 in micromolar, PC3 (MTT assay). Here is the method:
as §1, §2, §3

The subject of assay [7] is MDAMB231 spheres (cancer stem cells). Kind of assay: In vitro sphere-forming assay (cancer stem cells), MDAMB231 in Mammosphere media. The note with it: for 3D sphere count of MDAMB231 in Mammosphere media: 2000 cells/well, n = 6 ± S.D; for viability at 0.0025 µM / viability at 0.025 µM / viability at 0.25 µM / viability at 2.5 µM / viability at 25 µM: Homo sapiens, MDA-MB-231, read-out: % Viability of spheres (MDAMB231).

[8] abbreviates: Homo sapiens, MDA-MB-231, 168 h.

In the case of `CCOC(=O)N1CCN(CCCCCCOc2c3c(c(-c4ccc5c(c4)OCO5)c4cc(OC)c(OC)cc24)C(=O)OC3)CC1` [Formula IX, ethyl 4-(6-(9-(benzo[d][1,3]dioxol-5-yl)-1,3-dihydro-6,7-dimethoxy-1-oxonaphtho[2,3-c]furan-4-yloxy)hexyl)piperazine-1-carboxylate Hydrochloride], the IC50 (as a rule, the midpoint of a concentration-inhibition curve) was determined as 10.7 µM in assay [1] (Homo sapiens, DU-145, 48 h); 3.29 µM in assay [2] (168 h); 0.327 µM in assay [3] (hydrochloride); 10.9 µM in assay [4] (Homo sapiens, MDA-MB-231, 48 h).

As to `COc1cc2c(OCCCCN3CCOCC3)c3c(c(-c4ccc5c(c4)OCO5)c2cc1OC)C(=O)OC3` [Formula VI, 4-(4-morpholinobutoxy)-9-(benzo[d][1,3]dioxol-5-yl)-6,7-dimethoxynaphtho[2,3-c]furan-1(3H)-one], the IC50 in assay [1] was 4.05 µM; in assay [2] it was 2.65 µM; in assay [3], 2.69 µM; in assay [4] it was 10.9 µM. The “3D sphere count of PC3 in Prostosphere media” value (shortened to “3D sphere count of PC3”) is listed as 49(±2) in assay [5] (0.025 uM); 41(±2) in assay [5] (0.25 uM); 37(±2) in assay [5] (2.5 uM); 27(±2) in assay [5] (25 uM); 0(±0) in assay [5] (250 uM). Also, the viability – broadly, the share of living cells, or the viability signal relative to a control – at 0.025 µM in assay [5] (GCD = 100% viability) was 57%. The viability at 0.25 µM in assay [5] (GCD = 100% viability) was determined as 48%. Further, in assay [5] (GCD = 100% viability), the viability at 2.5 µM is 43%. For the same compound, the viability at 25 µM in assay [5] (GCD = 100% viability) is 31%. The viability at 250 µM in assay [5] (read-out: % Viability of spheres (PC3), 250 uM, GCD = 100% viability) came to 0%.

Consider `O=C(CCCOc1ccc(-c2ccc3c(c2)OCO3)c2ccccc12)N1CCOCC1` [Formula XV, 4-(1-(benzo[d][1,3]dioxol-5-yl)naphthalen-4-yloxy)-1-morpholinobutan-1-one], for which the IC50 worked out at 2.51 µM in assay [1] (Homo sapiens, DU-145, 48 h); 7.82 µM in assay [6]; 3.06 µM in assay [2] (168 h); 5.36 µM in assay [3] (setting [8]); 4.95 µM in assay [4] (Homo sapiens, MDA-MB-231, 48 h). In addition, the “3D sphere count of MDAMB231 in Mammosphere media” value (“3D sphere count of MDAMB231” for short) in assay [7] (0.0025 uM) is reported as 53(±2); in assay [7] (0.025 uM), 51(±5); in assay [7] (0.25 uM), 40(±6); in assay [7] (2.5 uM) it was 31(±3); in assay [7] (25 uM) it was 16(±4). In addition, the viability at 0.0025 µM in assay [7] worked out at 64%. The viability at 0.025 µM in assay [7] amounted to 62%. Also, the viability at 0.25 µM in assay [7] turned out to be 49%. In addition, in assay [7], the viability at 2.5 µM was found to be 38%. The viability at 25 µM in assay [7] stood at 19%.

With `c1cnc2c(OCCCCCCN3CCOCC3)ccc(-c3ccc4c(c3)OCO4)c2c1` [Formula XVI, 8-(6-morpholinohexyloxy)-5-(benzo[d][1,3]dioxol-5-yl)quinoline], the IC50 in assay [1] (Homo sapiens, DU-145, 48 h) was 3.52 µM; in assay [6], 5.52 µM; in assay [4] (Homo sapiens, MDA-MB-231, 48 h) it was 3.8 µM. Further, the “3D sphere count of PC3” value is listed as 72(±6) in assay [5] (0.0025 uM); 53(±4) in assay [5] (0.025 uM); 42(±4) in assay [5] (0.25 uM); 34(±3) in assay [5] (2.5 uM); 25(±4) in assay [5] (25 uM). Further, the figures for the viability at 0.0025 µM in assay [5] (GCD = 100% viability) and in assay [7] were 86% and 71%, respectively. The figures for the viability at 0.025 µM in assay [5] (GCD = 100% viability) and in assay [7] were 63% and 59%, respectively. Moreover, the results for the viability at 0.25 µM in assay [5] (GCD = 100% viability) and in assay [7] were 50% and 49%, respectively. The viability at 2.5 µM stood at 40% in assay [5] (GCD = 100% viability) and 43% in assay [7]. The viability at 25 µM in assay [5] (GCD = 100% viability) came to 30%; in assay [7] it was 25%. The “3D sphere count of MDAMB231” value in assay [7] (0.0025 uM) is given as 61(±3); in assay [7] (0.025 uM), 51(±3); in assay [7] (0.25 uM), 42(±3); in assay [7] (2.5 uM), 37(±3); in assay [7] (25 uM) it was 22(±4).

`c1cnc2c(OCCCCNC3CCCCC3)ccc(-c3ccc4c(c3)OCO4)c2c1` [Formula XVII, N-(4-(5-(benzo[d][1,3]dioxol-5-yl)quinolin-8-yloxy)butyl)cyclohexanamine]: the IC50 in assay [1] (Homo sapiens, DU-145, 48 h) is 1.99 µM; in assay [6], 2.82 µM; in assay [4] (Homo sapiens, MDA-MB-231, 48 h) it was 2.13 µM.

For `c1cc2c(cc1-c1ccc(OCCN3CCOCC3)c3c1CCCC3)OCO2` [Formula XXI, 4-(2-(5-(benzo[d][1,3]dioxol-5-yl)-1,2,3,4-tetrahydronaphthalen-8-yloxy)ethyl) morpholine], the IC50 in assay [1] (Homo sapiens, DU-145, 48 h) turned out to be 4.26 µM; in assay [6] it was 3.86 µM; in assay [2] (168 h), 2.75 µM; in assay [3] (setting [8]), 4.34 µM; in assay [4] (Homo sapiens, MDA-MB-231, 48 h), 4.2 µM. Also, the “3D sphere count of PC3” value in assay [5] (0.0025 uM) is recorded as 62(±4); in assay [5] (0.025 uM), 54(±2); in assay [5] (0.25 uM), 50(±2); in assay [5] (2.5 uM) it was 45(±3); in assay [5] (25 uM) it was 36(±2). The viability at 0.0025 µM in assay [5] (GCD = 100% viability) was determined as 78%. In addition, the viability at 0.025 µM in assay [5] (GCD = 100% viability) stood at 68%. Also, the viability at 0.25 µM in assay [5] (GCD = 100% viability) worked out at 63%. For the same compound, in assay [5] (GCD = 100% viability), the viability at 2.5 µM turned out to be 57%. For the same compound, in assay [5] (GCD = 100% viability), the viability at 25 µM worked out at 45%.

`C=CCNCCCCCCOc1ccc(-c2ccc3c(c2)OCO3)c2c1CCCC2` [Formula XXII, 6-(5-(benzo[d][1,3]dioxol-5-yl)-1,2,3,4-tetrahydronaphthalen-8-yloxy)-N-allylhexan-1-amine]: the IC50 in assay [1] (Homo sapiens, DU-145, 48 h) was 1.48 µM; in assay [6], 2.45 µM; in assay [4] (Homo sapiens, MDA-MB-231, 48 h), 1.35 µM. Also, the “3D sphere count of PC3” value in assay [5] (0.0025 uM) is 55(±3); in assay [5] (0.025 uM), 44(±4); in assay [5] (0.25 uM), 36(±3); in assay [5] (2.5 uM) it was 25(±3); in assay [5] (25 uM) it was 14(±3). For the same compound, the figures for the viability at 0.0025 µM in assay [5] (GCD = 100% viability) and in assay [7] were 66% and 55%, respectively. The values for the viability at 0.025 µM in assay [5] (GCD = 100% viability) and in assay [7] were 52% and 39%, respectively. Also, the figures for the viability at 0.25 µM in assay [5] (GCD = 100% viability) and in assay [7] were 43% and 28%, respectively. Also, the viability at 2.5 µM in assay [5] (GCD = 100% viability) was found to be 30%; in assay [7], 10%. For the same compound, the viability at 25 µM in assay [5] (GCD = 100% viability) is 17%; in assay [7] it was 0%. In addition, the “3D sphere count of MDAMB231” value in assay [7] (0.0025 uM) is on record as 47(±3); in assay [7] (0.025 uM), 34(±3); in assay [7] (0.25 uM), 24(±4); in assay [7] (2.5 uM) it was 9(±2); in assay [7] (25 uM) it was 0(±0).
